Assay results published in ChEMBL document CHEMBL1201862, “PubChem BioAssay data set” (2004).
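Growth conditions: 96-well plates. Treatment: test compound, 48 hours, 5 concentrations. Analysis: linear interpolation between bracketing concentrations; unreached endpoints set to highest concentration. At the GI50, growth is halved.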 Active and inactive are the calls of the source. No stated cut-off is given here; in the data, active = GI50 up to about 1.1 µM and inactive = higher.

Columns and labels:
Assay in all cases: NCI-60 cell line screen, 48 h
A549 = system: A549
ACHN = system: ACHN
CCRF-CEM = system: CCRF-CEM
DU-145 = system: DU-145
HL-60 = system: HL-60
KM12 = system: KM12
LOX IMVI = system: LOX IMVI
M14 = system: M14
OVCAR-4 = system: OVCAR-4
OVCAR-5 = system: OVCAR-5
PC-3 = system: PC-3
RPMI-8226 = system: RPMI-8226
SF-539 = system: SF-539
SK-MEL-5 = system: SK-MEL-5
SNB-75 = system: SNB-75
SR = system: SR
U-251 = system: U-251
BT-549 = system: BT-549
K562 = system: K562
SK-OV-3 = system: SK-OV-3

Measured: GI50

CN(CC(=O)O)c1ncc2c(n1)-c1ccccc1SC2
inactive: A549 > 100 µM | ACHN > 100 µM | CCRF-CEM > 100 µM | DU-145 > 100 µM | HL-60 > 100 µM | KM12 > 100 µM | LOX IMVI > 100 µM | M14 > 100 µM | OVCAR-4 > 100 µM | OVCAR-5 > 100 µM | PC-3 > 100 µM | RPMI-8226 > 100 µM | SF-539 > 100 µM | SK-MEL-5 > 100 µM | SNB-75 > 100 µM | SR 92.3 µM | U-251 > 100 µM

C=C1C(O)CC[C@]2(C)C1C1OC(C)(C)O[C@]13CC(=O)C(C)=C([C@H]1OC(C)(C)OC12)C3(C)C (stereo partly drawn)
inactive: A549 > 100 µM | ACHN 92 µM | BT-549 > 100 µM | CCRF-CEM > 100 µM | DU-145 > 100 µM | HL-60 > 100 µM | K562 90.2 µM | KM12 > 100 µM | LOX IMVI > 100 µM | OVCAR-4 96.4 µM | OVCAR-5 > 100 µM | RPMI-8226 96.8 µM | SF-539 > 100 µM | SK-MEL-5 > 100 µM | SK-OV-3 > 100 µM | SNB-75 > 100 µM | SR > 100 µM | U-251 > 100 µM

Cn1c(=O)c2c(no[n+]2[O-])n(C)c1=O
inactive: A549 > 100 µM | ACHN > 100 µM | BT-549 21.7 µM | CCRF-CEM > 100 µM | K562 > 100 µM | KM12 52 µM | LOX IMVI > 100 µM | M14 > 100 µM | OVCAR-4 59.8 µM | OVCAR-5 > 100 µM | PC-3 > 100 µM | RPMI-8226 > 100 µM | SF-539 63.2 µM | SK-MEL-5 42.6 µM | SK-OV-3 53.5 µM | SNB-75 49.7 µM | SR > 100 µM | U-251 22.6 µM

CCCOP(=O)(OCCC)OC(C(F)(F)F)C(F)(F)F
inactive: ACHN > 100 µM | BT-549 > 100 µM | CCRF-CEM > 100 µM | DU-145 > 100 µM | HL-60 > 100 µM | K562 > 100 µM | KM12 > 100 µM | LOX IMVI > 100 µM | M14 > 100 µM | OVCAR-5 > 100 µM | RPMI-8226 > 100 µM | SF-539 > 100 µM | SK-OV-3 > 100 µM | SNB-75 > 100 µM | SR > 100 µM | U-251 > 100 µM

CN(C)CCN1C(=O)c2ccccc2C1(O)c1ccc(Cl)cc1 (stereo not drawn)
inactive: A549 > 100 µM | ACHN > 100 µM | BT-549 > 100 µM | CCRF-CEM 32.4 µM | DU-145 > 100 µM | HL-60 26.4 µM | K562 > 100 µM | KM12 69.5 µM | M14 42.9 µM | OVCAR-4 > 100 µM | OVCAR-5 > 100 µM | PC-3 50.1 µM | RPMI-8226 > 100 µM | SK-MEL-5 24 µM | SK-OV-3 > 100 µM | SNB-75 83.4 µM | U-251 99.1 µM

C1CSCC2(COC2)CS1
inactive: A549 > 100 µM | ACHN > 100 µM | CCRF-CEM > 100 µM | DU-145 > 100 µM | K562 > 100 µM | KM12 > 100 µM | LOX IMVI > 100 µM | OVCAR-4 > 100 µM | PC-3 > 100 µM | SK-MEL-5 > 100 µM | SK-OV-3 > 100 µM | SNB-75 > 100 µM | SR > 100 µM | U-251 > 100 µM

Oc1cc(-c2ccc(F)cc2)nc2ncccc12
inactive: A549 52.8 µM | ACHN 73.8 µM | BT-549 > 100 µM | CCRF-CEM 36.2 µM | DU-145 74.6 µM | K562 22.2 µM | KM12 31.9 µM | LOX IMVI 45.5 µM | M14 61.5 µM | OVCAR-4 78.9 µM | OVCAR-5 98.9 µM | RPMI-8226 37.1 µM | SF-539 41 µM | SK-OV-3 30.3 µM | SNB-75 20.7 µM

Cc1ccc(S(=O)(=O)n2cc(-c3cc(C(F)(F)F)ccn3)c3cc(Br)ccc32)cc1
inactive: A549 21.1 µM | ACHN 11.4 µM | CCRF-CEM > 100 µM | DU-145 17.9 µM | HL-60 > 100 µM | K562 > 100 µM | KM12 38.9 µM | LOX IMVI 28.1 µM | M14 27.7 µM | OVCAR-4 12.3 µM | OVCAR-5 50 µM | PC-3 18.2 µM | RPMI-8226 69.2 µM | SF-539 17.1 µM | SK-MEL-5 24.3 µM | SK-OV-3 15.5 µM | SR 54.6 µM | U-251 15.5 µM
